Each compound was assayed on rabbit skeletal myofibrils (fast skeletal myofibrils) (assay: Activation of fast skeletal myofibrils (PUMA assay, PK/LDH-coupled ATPase at pCa25)). Conditions: AC1.4 determined according to the procedure of Example 39; reported as class symbols.
Format: biochemical
Procedure, shortened: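 ATPase activity of Triton-washed rabbit skeletal myofibrils, roughly 90% fast fibres, tracked by NADH loss at 340 nm through a PK/LDH-coupled ADP-regenerating system. Calcium set to 25% of maximal activity (pCa25), in PIPES 12 mM pH 6.8 with 2 mM MgCl2 and 1 mM DTT; AC1.4 reported.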
For `COc1cccc(-c2ccc(NCC(C)(C)c3ccc(F)cc3)nn2)n1` [[2-(4-fluorophenyl)-2-methylpropyl][6-(6-methoxy(2-pyridyl))pyridazin-3-yl]amine], the “Mean AC1.4” value was “A (A=<1 uM)”. `OCc1ccccc1-c1ccc(NCC2(c3ncccc3F)CCC2)nn1` was tested, and the “Mean AC1.4” value was “B (B=1-10 uM)”. In the case of `CCNc1n[nH]c2ccc(-c3ccc(NCC(C)(C)c4ccc(F)cc4)nn3)cc12` [{6-[3-(ethylamino)(1H-indazol-5-yl)]pyridazin-3-yl}[2-(4-fluorophenyl)-2-methylpropyl]amine], the “Mean AC1.4” value is reported as “A (A=<1 uM)”. `NC(=O)c1cccc(-c2ccc(NCC3CCCc4ccccc43)nn2)c1` (stereo not shown) was tested, and the “Mean AC1.4” value was “B (B=1-10 uM)”. For `CC(C)(C)OC(=O)N(CC(C)(C)c1ncccc1F)c1ccc(-c2ccc3[nH]c(O)nc3c2)nn1` [(tert-butoxy)-N-[2-(3-fluoro(2-pyridyl))-2-methylpropyl]-N-[6-(2-hydroxybenzimidazol-5-yl)pyridazin-3-yl]carboxamide], the “Mean AC1.4” value was “D (D=>20 uM)”. `CC(C)(CNc1ccc(-c2ccc(O)cn2)nn1)c1ccc(F)cc1` [6-(6-{[2-(4-fluorophenyl)-2-methylpropyl]amino}pyridazin-3-yl)pyridin-3-ol] was tested, and the “Mean AC1.4” value was “A (A=<1 uM)”. For `CC(C)(CNc1ccc(-c2ccc(C#N)cc2)nn1)c1ccc(F)cc1` [4-(6-{[2-(4-fluorophenyl)-2-methylpropyl]amino}pyridazin-3-yl)benzenecarbonitrile], the “Mean AC1.4” value was “B (B=1-10 uM)”. With `CC(C)(CNc1ccc(-c2cccc(C(N)=O)n2)nn1)c1ccc(F)cc1` [6-(6-{[2-(4-fluorophenyl)-2-methylpropyl]amino}pyridazin-3-yl)pyridine-2-carboxamide] the “Mean AC1.4” value was “B (B=1-10 uM)”. In the case of `CC(C)(CNc1ccc(-c2cccc(O)n2)nn1)c1ccc(F)cc1` [6-(6-{[2-(4-fluorophenyl)-2-methylpropyl]amino}pyridazin-3-yl)pyridin-2-ol], the “Mean AC1.4” value is reported as “B (B=1-10 uM)”. `CC(C)(C)OC(=O)N(CC(C)(C)c1ccc(F)cc1)c1ccc(-c2ccc3[nH]c(=O)c(=O)[nH]c3c2)nn1` [(tert-butoxy)-N-[6-(2,3-dioxo(1,4-dihydroquinoxalin-6-yl))pyridazin-3-yl]-N-[2-(4-fluorophenyl)-2-methylpropyl]carboxamide] was tested, and the “Mean AC1.4” value was “D (D=>20 uM)”. In the case of `Fc1ccc(C2(CNc3ccc(-c4ccc5cn[nH]c5c4)nn3)CCC2)cc1` [(6-(1H-indazol-6-yl)pyridazin-3-yl){[(4-fluorophenyl)cyclo-butyl]methyl}amine], the “Mean AC1.4” value is reported as “A (A=<1 uM)”.

Same assay, conditions: median AC1.4 class, procedure of Example 39
With `CC(C)(CNc1ccc(-c2cccc(C(N)=O)c2)nn1)c1ncccc1Cl` [3-(6-{[2-(3-chloro(2-pyridyl))-2-methylpropyl]amino}pyridazin-3-yl)benzamide] the “Mean AC1.4” value was “A (A=<1 uM)”. `NC(=O)Nc1ccc(-c2ccc(NC3(c4ccc(F)cc4)CCC3)nn2)cc1` was tested, and the “Mean AC1.4” value was “A (A=<1 uM)”. With `O=C(NCC(F)(F)CO)c1cnc(-c2ccc(NCC3(c4ncccc4F)CCC3)nn2)s1` [N-(2,2-difluoro-3-hydroxypropyl){2-[6-({[(3-fluoro(2-pyridyl))cyclobutyl]methyl}ami-no)pyridazin-3-yl](1,3-thiazol-5-yl)}carboxamide] the “Mean AC1.4” value was “A (A=<1 uM)”. With `CNC(=O)c1ccc(F)c(-c2ccc(NC[C@]3(c4ncccc4F)C[C@H](F)C3)nn2)c1` [{4-fluoro-3-[6-({[3-fluoro-1-(3-fluoro(2-pyridyl))cyclobutyl]methyl}ami-no)pyridazin-3-yl]phenyl}-N-methylcarboxamide] the “Mean AC1.4” value was “A (A=<1 uM)”. With `CS(=O)(=O)Nc1cccc(-c2ccc(NC3(c4cccc(OC(F)F)n4)CCC3)nn2)c1` the “Mean AC1.4” value was “A (A=<1 uM)”. `O=c1[nH][nH]c2nc(-c3ccc(NCC4(c5ncccc5F)CCC4)nn3)sc12` [5-[6-({[(3-fluoro-2-pyridyl)cyclobutyl]methyl}ami-no)pyridazin-3-yl]-3-pyrazolino[3,4-d]1,3-thiazol-3-one] was tested, and the “Mean AC1.4” value was “D (D=>20 uM)”. In the case of `NC(CNC(=O)c1cnc(-c2ccc(NCC3(c4ncccc4F)CCC3)nn2)s1)C(F)(F)F` (stereo not shown) [N-(2-amino-3,3,3-trifluoropropyl){2-[6-({[(3-fluoro(2-pyridyl))cyclobutyl]methyl}ami-no)pyridazin-3-yl](1,3-thiazol-5-yl)}carboxamide], the “Mean AC1.4” value is reported as “B (B=1-10 uM)”. In the case of `N#Cc1cccc(-c2ccc(NCC3(c4ccccn4)CCC3)nn2)c1` [3-(6-{[(2-pyridylcyclobutyl)methyl]ami-no}pyridazin-3-yl)benzenecarbonitrile], the “Mean AC1.4” value is reported as “B (B=1-10 uM)”. For `NC(=O)c1ccc(F)c(-c2ccc(NC3(c4ncccc4Cl)CCC3)nn2)c1`, the “Mean AC1.4” value was “A (A=<1 uM)”. For `O=C(c1cnc(-c2ccc(NCC3(c4ncccc4F)CCC3)nn2)s1)N1CCCC(O)C1` (stereo not shown) [2-[6-({[(3-fluoro(2-pyridyl))cyclobutyl]methyl}ami-no)pyridazin-3-yl](1,3-thiazol-5-yl) 3-hydroxypiperidyl ketone], the “Mean AC1.4” value was “C (C=10-20 uM)”. In the case of `O=C(N[C@H]1CCNC1)c1ccc(F)c(-c2ccc(NC[C@]3(c4ncccc4F)C[C@H](F)C3)nn2)c1` [N-((3S)pyrrolidin-3-yl){4-fluoro-3-[6-({[3-fluoro-1-(3-fluoro(2-pyridyl))cyclobutyl]methyl}ami-no)pyridazin-3-yl]phenyl}carboxamide], the “Mean AC1.4” value is reported as “B (B=1-10 uM)”. For `Fc1cccnc1C1(CNc2ccc(-c3nc4c(s3)CNC4)nn2)CCC1` [{[(3-fluoro(2-pyridyl))cyclobutyl]methyl}(6-(3-pyrrolino[3,4-d]1,3-thiazol-2-yl)pyridazin-3-yl)amine], the “Mean AC1.4” value was “D (D=>20 uM)”. With `CN(CC1(c2ccccn2)CCC1)c1ccc(-c2cccc(C(N)=O)c2)nn1` [3-(6-{methyl[(2-pyridylcyclobutyl)methyl]ami-no}pyridazin-3-yl)benzamide] the “Mean AC1.4” value was “D (D=>20 uM)”. In the case of `O=C(N[C@@H]1CCNC1)c1cnc(-c2ccc(NCC3(c4ncccc4F)CCC3)nn2)s1` [N-((3R)pyrrolidin-3-yl){2-[6-({[(3-fluoro(2-pyridyl))cyclobutyl]methyl}ami-no)pyridazin-3-yl](1,3-thiazol-5-yl)}carboxamide], the “Mean AC1.4” value is reported as “A (A=<1 uM)”. `N#Cc1ccnc(C2(Nc3ccc(-c4cc(C(N)=O)ccc4F)nn3)CCC2)c1` was tested, and the “Mean AC1.4” value was “D (D=>20 uM)”. `CC(C)(O)C(N)c1ccc(-c2ccc(NCC3(c4ncccc4F)CCC3)nn2)cc1` (stereo not shown) was tested, and the “Mean AC1.4” value was “D (D=>20 uM)”. In the case of `NC(=O)c1noc(-c2ccc(NCC3(c4ncccc4F)CCC3)nn2)n1`, the “Mean AC1.4” value is reported as “B (B=1-10 uM)”. For `O=C(O)c1cnc(-c2ccc(NCC3(c4ccccn4)CCC3)nn2)s1` [2-(6-{[(2-pyridylcyclobutyl)methyl]ami-no}pyridazin-3-yl)-1,3-thiazole-5-carboxylic acid], the “Mean AC1.4” value was “C (C=10-20 uM)”. In the case of `CCOC(=O)c1sc(-c2ccc(NCC3(c4ncccc4F)CCC3)nn2)nc1O` [ethyl 2-[6-({[(3-fluoro(2-pyridyl))cyclobutyl]methyl}ami-no)pyridazin-3-yl]-4-hydroxy-1,3-thiazole-5-carboxylate], the “Mean AC1.4” value is reported as “D (D=>20 uM)”. `CC(=O)Nc1ncc(-c2ccc(NCC3(c4ncccc4F)CCC3)nn2)cn1` was tested, and the “Mean AC1.4” value was “C (C=10-20 uM)”. With `CC(=O)Nc1nccc(-c2ccc(NCC3(c4ncccc4F)CCC3)nn2)n1` [N-{4-[6-({[(3-fluoro-2-pyridyl)cyclobutyl]methyl}ami-no)pyridazin-3-yl]pyrimidin-2-yl}acetamide] the “Mean AC1.4” value was “C (C=10-20 uM)”. For `Nc1ncc(-c2ccc(NC3(c4ccc(F)cc4)CCC3)nn2)cn1` [[6-(2-aminopyrimidin-5-yl)pyridazin-3-yl][(4-fluorophenyl)cyclobutyl]amine], the “Mean AC1.4” value was “B (B=1-10 uM)”. In the case of `NC(=O)[C@@H]1C[C@@H]1c1ccc(NCC2(c3ncccc3F)CCC2)nn1`, the “Mean AC1.4” value is reported as “D (D=>20 uM)”.

Same assay, conditions: median AC1.4 reported as class; procedure of Example 39
`COC(=O)Cc1ccc(F)c(-c2ccc(NCC3(c4ncccc4F)CCC3)nn2)c1` [methyl 2-{4-fluoro-3-[6-({[(3-fluoro(2-pyridyl))cyclobutyl]methyl}ami-no)pyridazin-3-yl]phenyl}acetate] was tested, and the “Mean AC1.4” value was “B (B=1-10 uM)”. In the case of `O=C1CCC(CNC(=O)c2ccc(NCC3(c4ncccc4F)CCC3)nn2)N1` (stereo not shown) [[6-({[(3-fluoro(2-pyridyl))cyclobutyl]methyl}ami-no)pyridazin-3-yl]-N-[(5-oxopyrrolidin-2-yl)methyl]carboxamide], the “Mean AC1.4” value is reported as “D (D=>20 uM)”. `CNc1ccc(-c2ccc(NC[C@]3(c4ncccc4F)C[C@H](F)C3)nn2)cn1` [{[3-fluoro-1-(3-fluoro(2-pyridyl))cyclobutyl]methyl}{6-[6-(methylamino)(3-pyridyl)]pyridazin-3-yl}amine] was tested, and the “Mean AC1.4” value was “B (B=1-10 uM)”. For `O=C(NC1CCS(=O)(=O)C1)c1cccc(-c2ccc(NC[C@]3(c4ncccc4F)C[C@H](F)C3)nn2)c1` (stereo partly shown) [N-(1,1-dioxothiolan-3-yl){3-[6-({[3-fluoro-1-(3-fluoro(2-pyridyl))cyclobutyl]methyl}ami-no)pyridazin-3-yl]phenyl}carboxamide], the “Mean AC1.4” value was “B (B=1-10 uM)”. `NC(=O)C1CCCC1NC(=O)c1ccc(NCC2(c3ncccc3F)CCC2)nn1` (stereo not shown) [2-{[6-({[(3-fluoro-2-pyridyl)cyclobutyl]methyl}ami-no)pyridazin-3-yl]carbonylamino}cyclopentane-carboxamide] was tested, and the “Mean AC1.4” value was “D (D=>20 uM)”. In the case of `CNC(=O)c1ccc(-c2ccc(NCC3(c4ncccc4F)CCC3)nn2)s1` [{5-[6-({[(3-fluoro(2-pyridyl))cyclobutyl]methyl}ami-no)pyridazin-3-yl](2-thienyl)}-N-methylcarboxamide], the “Mean AC1.4” value is reported as “B (B=1-10 uM)”. In the case of `O=C(NCc1cccnc1)c1ccc(NCC2(c3ncccc3F)CCC2)nn1` [[6-({[(3-fluoro(2-pyridyl))cyclobutyl]methyl}ami-no)pyridazin-3-yl]-N-(3-pyridylmethyl)carboxamide], the “Mean AC1.4” value is reported as “C (C=10-20 uM)”. For `Cc1cc(-c2cccc(C(N)=O)c2)nnc1NCC1(c2ncccc2F)CCC1` [3-[6-({[(3-fluoro(2-pyridyl))cyclobutyl]methyl}amino)-5-methylpyridazin-3-yl]benzamide], the “Mean AC1.4” value was “D (D=>20 uM)”. In the case of `O=C(NCc1ccncc1)c1ccc(NCC2(c3ncccc3F)CCC2)nn1` [[6-({[(3-fluoro(2-pyridyl))cyclobutyl]methyl}ami-no)pyridazin-3-yl]-N-(4-pyridylmethyl)carboxamide], the “Mean AC1.4” value is reported as “D (D=>20 uM)”.

Source: US10076519B2 (CYTOKINETICS, INC., priority 2010, dated 2018)
